What was measured:
taste testers [1] = experiment: Determination of the taste quality; assay type: in vivo
Procedure: The tests were performed in analogy to the method of DuBois, G. A. Crosby, R. A. Stephanson and R. E. Wingard Jr., J. Agric. […] The test compounds were used as aqueous solutions at a concentration which corresponds to an about 5% saccharose solution. As comparison compound saccharose was used. The tests were carried out under identical conditions. Only the characterization of the taste was evaluated, because the intensity was already determined in the preceding experiments. The following criteria were determined by each tester: Percentage sweet to percentage bitter to percentage another taste quality. Furthermore, the presence or absence of an after taste of the individual test compounds was determined. Each substance was tested twice with regard to five different determinations.

taste testers [2] = experiment: Determination of the threshold concentration (sweet taste); assay type: in vivo
Procedure: Aqueous solutions having concentrations of 1:12,500, 1:25,000, 1:50,000, and 1:100,000 were prepared of test compounds A, B and C and of comparison compounds X, Y and Z, and each was evaluated at 5 taste testers according to the following scoring system: Very sweet (=3 points), medium sweet (=2 points), weakly sweet (=1 point), and not sweet (=0 point). The tests were carried out as described by H. G. Schutz and F. J. Pilgrim in Food Research 22, 206 (1957). The dilution perceptible as sweet was defined as having the concentration at which the average value of the evaluation points reached 1.0 or more.

taste testers [3] = experiment: Determination of the relative sweetening power in comparison to saccharose; assay type: in vivo; conditions: compared with 3% aqueous solution of saccharose
Excerpt: The relative sweetening power (often also defined as degree of sweetness) of sweetening agents in comparison with saccharose (cane sugar) varies considerably with concentration. […] Therefore, for the determination of the relative sweetening power of the test compounds a 3% aqueous solution of saccharose was always used for comparison.

taste testers [4] = conditions: prior knowledge; cited from earlier work
[5] = prior knowledge; cited from earlier work
taste testers [6] = conditions: prior knowledge; cited from earlier work; remark: listed apart in the source
[7] = Batzinger et al., Science 198, 944 (1977); cited from earlier work
thrombocyte aggregation = experiment: Effect on thrombocyte aggregation induced by collagen; assay type: cell-based; conditions: read-out: Change in % max. aggregation rate
Procedure: The thrombocyte aggregation was measured according to Born and Cross [J. Physiol. 170, 397 (1964)] in platelet-rich plasma obtained by centrifuging citrate blood. The change in the maximum aggregation rate in % compared with a control, and the percent change in the "optical density" were the measured parameters. The aggregation was induced by collagen.

Row | Structure (SMILES) | After taste (taste testers [1]; 1:20, 10 determinations) | Percentage bitter (taste testers [1]; 1:20, 10 determinations) [%] | Percentage other taste (taste testers [1]; 1:20, 10 determinations) [%] | Percentage sweet (taste testers [1]; 1:20, 10 determinations) [%] | purity of the taste (taste testers [1]) | After taste (taste testers [1]; 1:10000, 10 determinations) | Percentage bitter (taste testers [1]; 1:10000, 10 determinations) [%] | Percentage other taste (taste testers [1]; 1:10000, 10 determinations) [%] | Percentage sweet (taste testers [1]; 1:10000, 10 determinations) [%] | Average value of evaluation points (taste testers [2]; concentration 1:25000) [points] | Average value of evaluation points (taste testers [2]; concentration 1:50000) [points] | Average value of evaluation points (taste testers [2]; concentration 1:100000) [points] | Relative sweetening power (Saccharose = 1) (taste testers [3]) | Average value of evaluation points (taste testers [2]; concentration 1:12500) [points] | sweetening power compared with saccharose (in words) (taste testers [4]) | toxicological tests at higher dosages [5] | taste profile compared with saccharose (taste testers [1]) | after taste and concurrent taste (taste testers [6]) | mutagenic effect [7] | change in maximum aggregation rate vs control at 100 µM (thrombocyte aggregation) [%]
1 | OC[C@H]1O[C@@](CO)(O[C@H]2O[C@H](CO)[C@@H](O)[C@H](O)[C@H]2O)[C@@H](O)[C@@H]1O [Saccharose, saccharose, reference compound] | 4 | 0 | 2 | 98 |  |  |  |  |  |  |  |  |  |  |  |  |  |  |  | 
2 | O=C1NS(=O)(=O)c2cccc(O)c21 [Substance A, 4-hydroxy-1,2-benzisothiazol-3(2H)-one-1,1-dioxide] |  |  |  |  | 94-96% | 3 | 2 | 4 | 94 | 2.4 | 1.0 | 0.2 | 210 |  |  |  |  |  |  | 
3 | O=C1NS(=O)(=O)c2cc(O)cc(O)c21 [Substance C, 4,6-Dihydroxy-1,2-benzoisothiazol-3(2H)-one-1,1-dioxide] |  |  |  |  | 86% | 8 | 3 | 11 | 86 | 1.8 | 1.0 | 0.0 | 180 |  |  |  |  |  |  | 
4 | O=S(=O)(O)NC1CCCCC1 [X, cyclamate, reference compound] |  |  |  |  |  |  |  |  |  | 0.2 | 0.0 |  | 45 | 0.6 | much better than that of the saccharose | not without objection |  |  |  | 
5 | O=C1NS(=O)(=O)c2ccccc21 [Y, saccharine, reference compound] |  |  |  |  |  | 80 | 21 | 7 | 72 | 2.4 | 1.2 | 0.4 |  |  | much better than that of the saccharose |  | not even approached | metallic, bitter after taste and the bitter concurrent taste | shows a mutagenic effect | 
6 | O=C1NS(=O)(=O)c2cc(O)ccc21 [Z, 6-hydroxy-1,2-benzisothiazol-3(2H)-one-1,1-dioxide, reference compound] |  |  |  |  |  | 29 | 7 | 12 | 81 | 1.4 | 0.6 | 0.0 | 140 |  |  |  | not even approached |  |  | 
7 | O=C1NS(=O)(=O)c2cccc(O)c21.[Na] [sodium salt] |  |  |  |  |  |  |  |  |  |  |  |  |  |  |  |  |  |  |  | 0

Source: patent US4404230A, “4-Hydroxy-1,2-Benzisothiazol-3(2H)-one-1,1-dioxides and salts thereof” (priority 1980, dated 1983)
